Counter-ions that a name gives are not always drawn.

Consider eight compounds from patent US8563583B2, “Pyridone analogs useful as melanin concentrating hormone receptor-1 antagonists” (Bristol-Myers Squibb Company, priority 2009, dated 2013).

Chain of human melanin concentrating hormone receptor (MCHR1) (Q99705 whole entry E4Q/A5T): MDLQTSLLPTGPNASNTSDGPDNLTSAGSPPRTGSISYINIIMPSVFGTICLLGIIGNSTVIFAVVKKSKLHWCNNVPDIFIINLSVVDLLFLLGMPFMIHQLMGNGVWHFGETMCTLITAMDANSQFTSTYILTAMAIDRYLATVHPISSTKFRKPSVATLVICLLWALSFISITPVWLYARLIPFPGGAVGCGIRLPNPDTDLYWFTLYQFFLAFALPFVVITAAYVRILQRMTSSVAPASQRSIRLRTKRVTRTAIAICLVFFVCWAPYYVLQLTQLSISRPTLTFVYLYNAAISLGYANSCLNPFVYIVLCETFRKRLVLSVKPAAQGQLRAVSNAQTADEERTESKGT

The target of one test is human melanin concentrating hormone receptor (MCHR1) (Homo sapiens (Human), UniProt Q99705, A5T/E4Q). The test is described as follows: Radioligand binding assay for assessment of MCHR1 activity. The settings on record: competition with [Phe13,[125I]Tyr19]-MCH; membranes of HEK-293 cells expressing mutated hMCHR1. How it is done:
Compounds of Formula I were initially characterized in an in vitro binding assay to determine their Ki or ability to antagonize binding of a peptide agonist to the human melanin concentrating hormone receptor (MCHR1). Representative compounds of the present invention had the following Ki values:
Membranes from stably transfected HEK-293 cells expressing a mutated (E4Q, AST) hMCHRI receptor were prepared by dounce homogenization and differential centrifugation. Binding experiments were carried out with 0.5-1.0 ug of membrane protein incubated in a total of 0.2 ml in 25 mM HEPES (pH 7.4) with 10 mM MgCl2, 2 mM EGTA, and 0.1% BSA (Binding Buffer) for 90 min. For competition binding assays, reactions were carried out in the presence of with 0.06-0.1 nM [Phe^13, [^125I]Tyr^19]-MCH and increasing concentrations of unlabeled test molecules. Reactions were terminated by rapid vacuum filtration over 96 well-GFC Unifilter plates pre-coated with 0.075 ml binding buffer containing 1% BSA, and washed 3 times with 0.4 ml of Phospho-buffered Saline (pH 7.4) containing 0.01% TX-100. Filters were dried; 0.05 ml microscint 20 was added to each well and radioactivity was subsequently quantified by scintillation counting on a TOPCOUNT® microplate scintillation counter (Packard). Inhibitory constants were determined by nonlinear least squares analysis using a four parameter logistic equation.
By Ki is commonly meant the equilibrium dissociation constant of an inhibitor or competing ligand from its target. In the case of `COc1cc(-n2ccc(COc3ccccc3)cc2=O)ccc1OCC(C)(C)O` [Example A-6], the Ki was 2340 nM. The same measure, in the same setting: the result for `COc1cc(-n2ccc(CSc3ccc(Cl)cc3)cc2=O)ccc1OCC(C)(C)O` [Example A-29] reads 29 nM. The same measure, in the same setting: the same measure for `COc1cc(-n2ccc(CNc3ccc(Cl)cc3)cc2=O)ccc1OCC(C)(C)O` [Example A-33]: 500 nM. The same measure, in the same setting: the result for `COc1cc(-n2ccc(-c3ccc(C(F)(F)F)cc3)cc2=O)ccc1OCC(C)(C)O` [Example B-2] reads 7 nM; that for `COc1cc(-n2ccc(-c3ccc(OC(F)(F)F)cc3)cc2=O)ccc1OCCO` [Example C-1], 3 nM; that for `COc1cc(-n2ccc(SCc3ccc(Cl)cc3)cc2=O)ccc1OCC(C)(C)O` [Example D-4, 4-(4-Chlorobenzylthio)-1-(4-(2-hydroxy-2-methylpropoxy)-3-methoxyphenyl)pyridin-2(1H)-one], 4 nM.

Another test has as its system SPRAGUE DAWLEY® rats. Kind of test: Assessment of in vivo MCHR1 activity: weight change in rats given a choice of chow and high fat/high sucrose diet. Also noted: species or system rat. Particulars: 30 mg/kg p.o. daily for four days. The protocol: Male SPRAGUE DAWLEY® (CD, Charles River Breeding Laboratory) rats weighing approximately 240 grams were placed in individual plastic cages with ALPHADRI® bedding. The room was maintained at 72° F. and 50% humidity, and a 12/12 light dark cycle with lights out at 1600 hours. The rats were conditioned for 5 days prior to the start of the study to having a choice of foods.
Baseline body weight was measured prior to drug treatment on day 0 of the study. Baseline food consumption was the average of the 3 days prior to the first drug treatment. Drug was administered daily p.o. at 2.0 ml/kg at 1500 hours beginning on day 0 and continuing daily through day 4 as a suspension in 0.5% methyl cellulose, 0.1% Tween 80 in water at 3.0, 10 and 30 mg/kg p.o. All data were evaluated using ANOVA and Fishers PLSD statistics.
For `COc1cc(-n2ccc(COc3ccc(Cl)cc3)cc2=O)ccc1OCC(C)(C)OC(=O)CN` [Example P-1, 1-(4-(4-((4-Chlorophenoxy)methyl)-2-oxopyridin-1(2H)-yl)-2-methoxyphenoxy)-2-methylpropan-2-yl 2-aminoacetate hydrochloride], the “% Weight change versus Control after daily Administration of drug at 30 mg/kg for four days” value is recorded as 3.4%. The same measure, in the same setting: the same measure for `COc1cc(-n2ccc(OCc3ccc(Cl)cc3)cc2=O)ccc1OCC(C)(C)OC(=O)CN` [Example P-3]: 6.1%.
